According to PubChem BioAssay (NCI):
Values joined by “and” are separate entries in the source; they are usually repeats but may differ in a detail not shown here. Identical values can stand only once.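 Assay format: 96-well plates, 48-hour exposure. GI50: concentration for 50% inhibition of growth. TGI denotes the concentration required for complete inhibition of growth.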

Tested on: MDA-MB-468 breast
Experiment: NCI anticancer screen, dose series, 48 h

SMILES | GI50 | TGI
CCNc1cc(-c2cccc(OC(F)(F)F)c2)nc2ccc(N3CCCC3)cc12 | 1.4 µM | 3.35 µM
COc1ccc(-c2ccncc2)cc1C(N)=O | > 25 µM | > 25 µM
COc1cc(F)c(F)c(Nc2ccc(I)cc2F)c1NS(=O)(=O)C1(C[C@H](O)CO)CC1 | > 5.95 µM | > 10 µM
Nc1nonc1-c1nc2cnccc2n1C1CC1 | 1.96 µM | 10.1 µM
CC(C)c1c(-c2ccccc2)nc2c(C#N)c[nH]n2c1=O | 19.1 µM | 50.9 µM
CC(C)c1cnn2c(NCc3ccccc3)cc(NC[C@H]3CCNC[C@@H]3O)nc12 | 0.381 µM and 0.519 µM | 1.79 µM and 2.33 µM
COc1cc(OC)c(C(=O)/C=C/c2cc3c(cc2OCc2ccccc2)OC(C)(C)CC3)cc1CC=C(C)C | 1.86 µM | 7.84 µM
CN(Cc1cnc2nc(N)nc(N)c2n1)c1ccc(C(=O)N[C@@H](CCC(=O)O)C(=O)O)cc1 | – | > 250 µM
CCC(O)c1ccc(Br)cc1NC(=O)c1cccc(Cl)c1 (configuration not stated) | 20.3 µM | 56.5 µM
COc1ccc2c(=O)cc(-c3ccccc3)[nH]c2c1 | 0.887 µM | > 100 µM
CCCCCCCCCCCCCCCCCC1=NC(C)(C)CN1CC(C)O (configuration not stated) | 12.1 µM | 24.4 µM
O=C(NOC[C@H](O)CO)c1ccc(F)c(F)c1Nc1ccc(I)cc1F | 13.9 µM | > 100 µM
COc1cc2ncn(-c3cc(OCc4ccccc4C(F)(F)F)c(C(=O)N(C)C)s3)c2cc1OC | 7.66 µM | > 14.7 µM
Cc1nc(N)nc2c1CCC(O)S2 (configuration not stated) | 2.74 µM | 13 µM
O=C1/C(=C/c2cccc(Br)c2)COc2ccc(O)cc21 | 1.75 µM | 4.33 µM
COc1cccc(/C(C#N)=C/c2nc3c(N4CCOCC4)nc(Cl)nc3n2C)c1 | 0.497 µM | 1.87 µM
C[C@@H]1C[C@H](C)CN(S(=O)(=O)c2ccc3c(NO)c4ccc(S(=O)(=O)N5C[C@H](C)C[C@H](C)C5)cc4c(N=O)c3c2)C1 | 0.154 µM | 0.312 µM
O=c1c2cc(F)ccc2sc2c(N3CCNCC3)nc3ccc(F)cc3c12 | 1.58 µM | 3.05 µM
Cc1nc(-c2ccccc2)n2nc(NCCCN3CCOCC3)ncc12 | > 5.33 µM | > 25 µM
Cn1c(C(=O)c2ccncc2)cc2ccccc21 | 32.3 µM | > 100 µM
FC(F)(c1ccc2ncccc2c1)c1nnc2ccc(-c3ccncc3)nn12 | 53.5 µM | > 100 µM
COc1cc2nc(SCc3cc(OC)c(OC)c(OC)c3)n(Cc3ccccc3)c(=O)c2cc1OC | 0.307 µM | 1.91 µM
Cc1ncc(C(=O)Nc2ccc(CN3CCN(C)CC3)c(C(F)(F)F)c2)cc1C#Cc1cnc2cccnn12 | 1.11 µM | 3.41 µM
O=C(/C=C/c1ccccc1)C(Br)C(Br)c1ccccc1 (configuration not stated) | 1.31 µM | 3.48 µM
